What is called pKd is −log10 of the Kd, conventionally taken in molar units.

The subject of assay [1] is A2780 cells. The experiment in a line: Proliferation assay, A2780 (Cell Titre-Glo). It is filed as cell-based. The settings on record: Homo sapiens; A2780, 72-hour exposure; read-out: Inhibition of A2780 cell proliferation IC50. The procedure: A2780 human ovarian carcinoma cells (ECACC #93112519) and non-adherent MOLM-13 human acute myeloid leukemia cells (DSMZ ACC 554) were seeded at a density of 3,000 cell/well (A2780) or 5,000 cells/well (MOLM-13) in a 96-well multititer plate in 150 μL of growth medium supplemented 10% fetal calf serum. After 24 hours, cell viability of one plate (zero-point plate) was determined with the Cell Titre-Glo Luminescent Cell Viability Assay (Promega), while the medium of the other plates was supplemented with the test substances in various concentrations (0 μM, as well as in the range of 0.0001-10 μM; the final concentration of the solvent dimethyl sulfoxide was adjusted to 0.1%) using a Hewlett-Packard HP D300 Digital Dispenser. Cell viability was assessed after 72-hour exposure with the Cell Titre-Glo Luminescent Cell Viability Assay (Promega). IC50 values (inhibitory concentration at 50% of maximal effect) were determined by means of a 4 parameter fit on measurement data which were normalized to vehicle (DMSO) treated cells (=100%) and measurement readings taken immediately before compound exposure (=0%).

Assay [2] deals with T1, CDK2/CycE (Homo sapiens, UniProt P24941).
T1 construct: GST; purchased ProQinase GmbH (Freiburg, Germany); host or cells: insect cells (Sf9)
The experiment in a line: CDK2/CycE high ATP kinase assay (TR-FRET). Type of assay: biochemical. The settings on record: 2 mM ATP, Method 2b. As for the experimental part:
2b. CDK2/CycE High ATP Kinase Assay
CDK2/CycE-inhibitory activity of compounds of the present invention at 2 mM adenosine-tri-phosphate (ATP) was quantified employing the CDK2/CycE TR-FRET (TR-FRET=Time Resolved Fluorescence Energy Transfer) assay as described in the following paragraphs.
Recombinant fusion proteins of GST and human CDK2 and of GST and human CycE, expressed in insect cells (Sf9) and purified by Glutathion-Sepharose affinity chromatography, were purchase from ProQinase GmbH (Freiburg, Germany). As substrate for the kinase reaction biotinylated peptide biotin-Ttds-YISPLKSPYKISEG (C-terminus in amid form) was used which can be purchased e.g. form the company JERINI peptide technologies (Berlin, Germany).
(§1) For the assay 50 nl of a 100 fold concentrated solution of the test compound in DMSO was pipetted into either a black low volume 384 well microtiter plate or a black 1536 well microtiter plate (both Greiner Bio-One, Frickenhausen, Germany), 2 μl of a solution of CDK2/CycE in aqueous assay buffer [50 mM Tris/HCl pH 8.0, 10 mM MgCl2, 1.0 mM dithiothreitol, 0.1 mM sodium ortho-vanadate, 0.01% (v/v) Nonidet-P40 (Sigma)] were added and the mixture was incubated for 15 min at 22° C. to allow pre-binding of the test compounds to the enzyme before the start of the kinase reaction. […] The concentration of CDK2/CycE was adjusted depending of the activity of the enzyme lot and was chosen appropriate to have the assay in the linear range, typical concentrations were about 10 ng/ml. The reaction was stopped by the addition of 3 μl of a solution of TR-FRET detection reagents (0.333 μM streptavidine-XL665 [Cisbio Bioassays, Codolet, France] and 1.67 nM anti-RB(pSer807/pSer811)-antibody from BD Pharmingen [#558389] and 2 nM LANCE EU-W1024 labeled anti-mouse IgG antibody [Perkin-Elmer, product no. AD0077, as an alternative a Terbium-cryptate-labeled anti-mouse IgG antibody from Cisbio Bioassays can be used]) in an aqueous EDTA-solution (167 mM EDTA, 0.2% (w/v) bovine serum albumin in 100 mM HEPES pH 7.5).
(§2) The resulting mixture was incubated 1 h at 22° C. to allow the formation of complex between the phosphorylated biotinylated peptide and the detection reagents. Subsequently the amount of phosphorylated substrate was evaluated by measurement of the resonance energy transfer from the Eu-chelate to the streptavidine-XL. Therefore, the fluorescence emissions at 620 nm and 665 nm after excitation at 350 nm was measured in a TR-FRET reader, e.g. a Pherastar (BMG Labtechnologies, Offenburg, Germany) or a Viewlux (Perkin-Elmer). The ratio of the emissions at 665 nm and at […] was taken as the measure for the amount of phosphorylated substrate. The data were normalised (enzyme reaction without inhibitor=0% inhibition, all other assay components but no enzyme=100% inhibition).
On the technique in general: TR-FRET usually uses a lanthanide donor and a delayed reading to cut background.

The target of assay [3] is T2, CDK9/CycT1 (Homo sapiens, UniProt P50750).
T2 construct: Recombinant full-length His-tagged human CDK9 and CycT1; His; purchased Life Technologies PV4131; host or cells: insect cells
T2 sequence (P50750 whole entry): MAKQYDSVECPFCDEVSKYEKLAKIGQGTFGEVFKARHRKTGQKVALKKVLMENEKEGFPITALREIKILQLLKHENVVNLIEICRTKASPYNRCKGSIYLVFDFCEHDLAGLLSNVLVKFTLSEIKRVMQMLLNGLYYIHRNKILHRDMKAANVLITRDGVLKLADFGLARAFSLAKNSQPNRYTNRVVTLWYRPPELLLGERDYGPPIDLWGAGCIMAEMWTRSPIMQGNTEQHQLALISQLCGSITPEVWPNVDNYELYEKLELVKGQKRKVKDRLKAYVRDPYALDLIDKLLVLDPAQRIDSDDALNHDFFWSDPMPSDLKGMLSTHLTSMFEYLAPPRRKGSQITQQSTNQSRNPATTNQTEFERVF
T2 sequence (O60563 whole entry partner): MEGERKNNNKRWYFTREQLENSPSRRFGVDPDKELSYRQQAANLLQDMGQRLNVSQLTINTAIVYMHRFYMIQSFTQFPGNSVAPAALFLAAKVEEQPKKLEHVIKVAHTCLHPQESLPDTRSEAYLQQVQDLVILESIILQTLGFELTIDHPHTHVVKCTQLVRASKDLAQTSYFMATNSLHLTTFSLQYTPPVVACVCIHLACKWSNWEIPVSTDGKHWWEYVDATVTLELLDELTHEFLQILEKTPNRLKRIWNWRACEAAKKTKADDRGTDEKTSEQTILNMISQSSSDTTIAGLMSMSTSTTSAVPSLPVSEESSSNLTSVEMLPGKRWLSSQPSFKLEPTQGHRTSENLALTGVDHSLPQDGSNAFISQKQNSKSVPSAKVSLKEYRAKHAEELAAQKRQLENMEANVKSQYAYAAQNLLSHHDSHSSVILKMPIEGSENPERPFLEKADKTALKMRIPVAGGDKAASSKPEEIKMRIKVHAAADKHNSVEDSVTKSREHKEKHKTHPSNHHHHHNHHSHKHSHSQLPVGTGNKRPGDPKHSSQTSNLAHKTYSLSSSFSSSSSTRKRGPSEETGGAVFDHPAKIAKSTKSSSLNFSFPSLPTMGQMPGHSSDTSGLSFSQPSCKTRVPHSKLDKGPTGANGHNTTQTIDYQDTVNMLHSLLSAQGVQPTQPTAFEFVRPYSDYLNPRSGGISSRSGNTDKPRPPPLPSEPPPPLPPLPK
Put plainly: CDK9/CycT1 high ATP kinase assay (TR-FRET). It is filed as biochemical. The settings on record: 2 mM ATP; for pIC50: Method 1b; for Selectivity high ATP CDK9 over high ATP CDK2: IC50 (high ATP CDK2)/IC50 (high ATP CDK9): minimal values where CDK9 IC50 is at the assay limit of about 1-2 nM. As for the experimental part:
1b. CDK9/CycT1 High ATP Kinase Assay
CDK9/CycT1-inhibitory activity of compounds of the present invention at a high ATP concentration after preincubation of enzyme and test compounds was quantified employing the CDK9/CycT1 TR-FRET assay as described in the following paragraphs.
Recombinant full-length His-tagged human CDK9 and CycT1, expressed in insect cells and purified by Ni-NTA affinity chromatography, were purchased from Life Technologies (Cat. No PV4131). As substrate for the kinase reaction biotinylated peptide biotin-Ttds-YISPLKSPYKISEG (C-terminus in amide form) was used which can be purchased e.g. form the company JERINI peptide technologies (Berlin, Germany).
as §1, with “CDK9/CycT1” for “CDK2/CycE”, “in the range of 0.5 μg/ml.” for “about 10 ng/ml.”, “(0.33” for “(0.333”, “AD0077])” for “AD0077, as an alternative a Terbium-cryptate-labeled anti-mouse IgG antibody from Cisbio Bioassays can be used])”
as §2

The target in assay [4] is T3, human PTEFb (CDK9/Cyclin T1) (Homo sapiens, UniProt P50750).
T3 construct: purchased ProQinase, Freiburg, Germany
T3 sequence (P50750 whole entry): as the sequence (P50750 whole entry) above
T3 sequence (O60563 whole entry partner): as the sequence (O60563 whole entry partner) above
Put plainly: Surface Plasmon Resonance PTEFb. It is filed as binding. The settings on record: SPR, 37° C.; for Target residence time: 1/koff; for pKd: * = arithmetic mean of more than one value, read-out: Equilibrium dissociation constant KD. From the text: 8. Surface Plasmon Resonance PTEFb
The ability of the compounds according to the invention to bind human PTEFb may be determined using surface plasmon resonance (SPR). KD values and koff values may be measured using a Biacore® T200 instrument (GE Healthcare, Uppsala, Sweden).
For SPR measurements, recombinant human PTEFb (CDK9/Cyclin T1 recombinant human active protein kinase purchased from ProQinase, Freiburg, Germany) is immobilized using standard amine coupling (Johnsson B et al, Anal Biochem. 1991 Nov. 1; 198(2):268-77). Briefly, carboxymethylated dextran biosensor chips (CM7, GE Healthcare) are activated with N-ethyl-N′-(3-dimethylaminopropyl)-carbodiimide hydrochloride (EDC) and N-hydroxysuccinimide (NHS) according to the supplier's instructions. Human PTEFb is diluted in 1×HBS-EP+(GE Healthcare) and injected on the activated chip surface. Subsequently, a 1:1 solution of 1 M ethanolamine-HCl (GE Healthcare) and 1×HBS-EP is injected to block unreacted groups, resulting in approximately 4000 response units (RU) of immobilized protein. A reference surface is generated by treatment with NHS-EDC and ethanolamine-HCl. Compounds are dissolved in 100% dimethylsulfoxide (DMSO, Sigma-Aldrich, Germany) to a concentration of 10 mM and subsequently diluted in running buffer (1×HBS-EP+pH 7.4 [generated from HBS-EP+Buffer 10×(GE Healthcare): 0.1 M HEPES, 1.5 M NaCl, 30 mM EDTA and 0.5% v/v Surfactant P20], 1% v/v DMSO). For kinetic measurements, serial dilutions of compound (0.078 nM up to 25 nM) are injected over immobilized protein. Binding kinetics is measured at 37° C. with a flow rate of 100 μl/min in running buffer. Compound concentrations are injected for 70 s followed by a dissociation time of 1100 s. The resulting sensorgrams are double-referenced against the reference surface as well as against blank injections.
The double-referenced sensorgrams are fit to a simple reversible Langmuir 1:1 reaction mechanism as implemented in the Biacore® T200 evaluation software 2.0 (GE Healthcare). In cases were full compound dissociation has not occurred at the end of the dissociation phase, the Rmax parameter (response at saturation) is fit as local variable. In all other cases, Rmax is fit as global variable.

Assay [5] relates to bronchospasms. The note with it: in vivo; cited from earlier work.

pIC50, pKd: −log10 of the molar value. Values joined by “and” are separate entries in the source; they are usually repeats but may differ in a detail not shown here. Equal entries are not always repeated.

Consider `CS(=N)(=O)Cc1cc2cc(c1)OCCCCCNc1cc(ccc1F)-c1nc(ncc1F)N2` (racemic) [Example 5, (rac)-3,21-difluoro-10-[(S-methylsulfonimidoyl)methyl]-13-oxa-5,7,19,26-tetraazatetracyclo[18.3.1.1^2,6.1^8,12]hexacosa-1(24),2(26),3,5,8(25),9,11,20,22-nonaene], for which the figures for the pIC50 in assay [1], in assay [2] and in assay [3] were 8.47, 6.45 and 8.80, respectively. In addition, the “Selectivity high ATP CDK9 over high ATP CDK2: IC50 (high ATP CDK2)/IC50 (high ATP CDK9)” value (from here on “Selectivity high ATP CDK9”) in assay [3] is given as 216.
As for `CS(=N)(=O)Cc1cc2cc(c1)OCCCCNc1cc(ccc1F)-c1nc(ncc1F)N2` (single isomer, unassigned) [Example 9, 3,20-difluoro-10-[(S-methylsulfonimidoyl)methyl]-13-oxa-5,7,18,25-tetraazatetracyclo[17.3.1.1^2,6.1^8,12]pentacosa-1(23),2(25),3,5,8(24),9,11,19,21-nonaene], the results for the pIC50 in assay [2] and in assay [3] were 7.07 and 8.64, respectively. Besides, the “Selectivity high ATP CDK9” value in assay [3] came to 37. Also, in assay [4] (* = arithmetic mean), the Target residence time is given as > 208 min. In addition, in assay [4], the pKd is 10.34 and 10.66 and 10.82 and 10.21 and 9.96 and 10.51 and 10.15 and 10.27.
For the molecule `CS(=N)(=O)Cc1cc2nc(c1)OCCCCNc1cc(ccc1F)-c1cc(ncc1F)N2` (racemic) [Example 6, (rac)-3,20-difluoro-10-[(S-methylsulfonimidoyl)methyl]-13-oxa-5,7,18,24-tetraazatetracyclo[17.3.1.1^2,6.1^8,12]pentacosa-1(23),2(25),3,5,8(24),9,11,19,21-nonaene], the pIC50 in assay [1] is 8.17; in assay [2], 7.60; in assay [3] it was 8.40. Also, in assay [3], the “Selectivity high ATP CDK9” value is reported as 6.3.
On to `CS(=N)(=O)Cc1cc2cc(c1)OCCCCNc1cc(ccc1F)-c1nc(ncc1F)N2` (single isomer, unassigned) [Example 10, 3,20-difluoro-10-[(S-methylsulfonimidoyl)methyl]-13-oxa-5,7,18,25-tetraazatetracyclo[17.3.1.1^2,6.1^8,12]pentacosa-1(23),2(25),3,5,8(24),9,11,19,21-nonaene], for which, in assay [2], the pIC50 was 6.89. Moreover, in assay [3], the pIC50 is 8.80 and the “Selectivity high ATP CDK9” value is on record as 79. In addition, the Target residence time in assay [4] (* = arithmetic mean) is 37* min. In assay [4], the pKd is 9.82. Also, the “Dissociation rate constant koff” value in assay [4] (* = arithmetic mean, < = below what is resolvable) is 4.5E−4* 1/s.
On to `C[N+]1(C)[C@@H]2C[C@@H](OC(=O)C(O)(c3cccs3)c3cccs3)C[C@H]1[C@@H]1O[C@@H]12` [tiotropium], for which the “protection against bronchospasms (duration)” value in assay [5] is listed as “more than 6 hours”.
In the case of `CC(C)(C)OC(=O)N=S(C)(=O)Cc1cc2cc(c1)OCCCCCNc1cc(ccc1F)-c1nc(ncc1F)N2` (racemic) [Example 4, (rac)-tert-butyl [{[3,21-difluoro-13-oxa-5,7,19,26-tetraazatetracyclo[18.3.1.1^2,6.1^8,12]hexacosa-1(24),2(26),3,5,8(25),9,11,20,22-nonaen-10-yl]methyl}(methyl)oxido-λ^6-sulfanylidene]carbamate], the values for the pIC50 in assay [1], in assay [2] and in assay [3] were 7.51, 5.44 and 8.85, respectively. Also, in assay [3], the “Selectivity high ATP CDK9” value is given as 2740.
For `CSCc1cc2cc(c1)OC(C)CCCNc1cc(ccc1F)-c1nc(ncc1F)N2` (racemic) [Example 7, (rac)-3,20-difluoro-14-methyl-10-[(methylsulfanyl)methyl]-13-oxa-5,7,18,25-tetraazatetracyclo[17.3.1.1^2,6.1^8,12]pentacosa-1(23),2(25),3,5,8(24),9,11,19,21-nonaene], in that order: 7.15, 5.53, 8.41 and 762.
